We go through 16 compounds from US20240124466A1, “COMPOUNDS AND USE THEREOF FOR TREATMENT OF NEURODEGENERATIVE, DEGENERATIVE AND METABOLIC DISORDERS” (VOVA IDA THERAPEUTICS, INC., priority 2020, published 2024).

The structures appear in SMILES notation.

The test system of the assay is PK1 neuroblastoma cells exposed to TPrP. In words: cells. Conditions: Neuroblastoma cell, 96 h, read-out: TPrP EC50.

In general, EC50 refers to the concentration that produces a half-maximal response. Consider `Cc1ccc(-c2cnc3ccccn23)cc1S(=O)(=O)N1CCOCC1` [SR-27444, 4-((5-(Imidazo[1,2-a]pyridin-3-yl)-2-methylphenyl)sulfonyl)morpholine], for which the EC50 was > 320 nM. Turning to `O=S(=O)(c1ccc(-c2nnc(-c3ccccc3)[nH]2)cc1Cl)N1CCOCC1` [SR-26324, 4-((2-Chloro-4-(5-phenyl-4H-1,2,4-triazol-3-yl)phenyl)sulfonyl)morpholine], the EC50 was > 320 nM.

With `Cc1ccc(-c2cccc3[nH]ncc23)cc1S(=O)(=O)N1CCOCC1` [SR-27484, 4-((5-(1H-Indazol-4-yl)-2-methylphenyl)sulfonyl)morpholine], the EC50 was > 320 nM. Next, `Cc1ccc(-c2nnc(-c3ccccc3)[nH]2)cc1S(=O)(=O)N1C2CCC1COC2` [SR-32704, 8-((2-Methyl-5-(5-phenyl-4H-1,2,4-triazol-3-yl)phenyl)sulfonyl)-3-oxa-8-azabicyclo[3.2.1]octane]: 800 nM; `Cc1ccc(-c2nnc(-c3ccccc3)[nH]2)cc1S(=O)(=O)N1C[C@H]2COC[C@H]2C1` [SR-32404, (3aR,6aS)-5-((2-Methyl-5-(5-phenyl-4H-1,2,4-triazol-3-yl)phenyl)sulfonyl) hexahydro-1H-furo[3,4-c]pyrrole]: 800 nM; `Cc1ccc(-c2cnn(C)c2)cc1S(=O)(=O)N1CCOCC1` [SR-24578]: 100 nM. Regarding `Cc1ccc(-c2nnc(-c3ccccc3)[nH]2)cc1S(=O)(=O)NCc1ccccn1` [SR-32144, 2-Methyl-5-(5-phenyl-4H-1,2,4-triazol-3-yl)-N-(pyridin-2-ylmethyl)benzene sulfonamide], the EC50 is > 1500 nM. In the case of `Cc1ccc(-c2nnc(-c3ccccc3)o2)cc1S(=O)(=O)N1CCOCC1` [SR-27558, 4-((2-Methyl-5-(5-phenyl-1,3,4-oxadiazol-2-yl)phenyl)sulfonyl)morpholine], the EC50 was determined as 140 nM. On to `Cc1ccc(-c2ccnc(Cl)c2)cc1S(=O)(=O)N1CCN(CC(C)O)CC1` (stereo not shown) [SR-35464, 1-(4-((5-(2-Chloropyridin-4-yl)-2-methylphenyl)sulfonyl)piperazin-1-yl)propan-2-ol], for which the concentration giving a half-maximal response (EC50) amounted to 800 nM.

Take `Cc1ccc(-c2nnc(-c3ccccc3)[nH]2)cc1S(=O)(=O)N1CCCC2(C1)OCCO2` [SR-33045, 7-((2-Methyl-5-(5-phenyl-4H-1,2,4-triazol-3-yl)phenyl)sulfonyl)-1,4-dioxa-7-azaspiro[4.5]decane]: the EC50 is > 1500 nM. Under `Cc1ccc(-c2nnc(-c3ccc(F)c(F)c3)[nH]2)cc1S(=O)(=O)N1CCOCC1` [SR-27984, 4-((5-(5-(3,4-Difluorophenyl)-4H-1,2,4-triazol-3-yl)-2-methylphenyl)sulfonyl) morpholine] stands 20 nM. For the compound `Cc1ccc(-c2nnc(-c3ccccc3)[nH]2)cc1S(=O)(=O)N1CCN(CCO)CC1` [SR-32124], the half-maximal effective concentration (EC50) amounted to 15 nM. Regarding `Cc1ccc(-c2nnc(-c3ccccc3)[nH]2)cc1S(=O)(=O)N1CCC(O)(c2ccccc2)CC1` [SR-32784, 1-((2-Methyl-5-(5-phenyl-4H-1,2,4-triazol-3-yl)phenyl)sulfonyl)-4-phenyl piperidin-4-ol], the EC50 is > 1500 nM.

In the case of `O=S(=O)(c1cc(-c2nnc(-c3ccccc3)[nH]2)ccc1Cl)N1CCOCC1` [SR-26525, 4-((2-Chloro-5-(5-phenyl-4H-1,2,4-triazol-3-yl)phenyl)sulfonyl)morpholine], the EC50 turned out to be 100 nM. `Cc1ccc(-c2nnc(-c3ccncc3)[nH]2)cc1S(=O)(=O)N1CCOCC1` [SR-28224, 4-((2-Methyl-5-(5-(pyridin-4-yl)-4H-1,2,4-triazol-3-yl)phenyl)sulfonyl) morpholine]: the EC50 was found to be 18 nM. In the case of `COc1ccc(-c2nnc(-c3ccccc3)[nH]2)cc1S(=O)(=O)N1CCOCC1` [SR-26624, 4-((2-Methoxy-5-(5-phenyl-4H-1,2,4-triazol-3-yl)phenyl)sulfonyl) morpholine], the concentration giving a half-maximal response (EC50) was determined as 260 nM.
